Assay [1] addresses T1, THR beta-LBD (Homo sapiens, UniProt P10828).
T1 construct: THR beta-LBD (the final concentration is 0.5 nM) was added to the 384-well assay plate; purchased Invitrogen PV4686
T1 sequence (P10828 217-461 limits assumed): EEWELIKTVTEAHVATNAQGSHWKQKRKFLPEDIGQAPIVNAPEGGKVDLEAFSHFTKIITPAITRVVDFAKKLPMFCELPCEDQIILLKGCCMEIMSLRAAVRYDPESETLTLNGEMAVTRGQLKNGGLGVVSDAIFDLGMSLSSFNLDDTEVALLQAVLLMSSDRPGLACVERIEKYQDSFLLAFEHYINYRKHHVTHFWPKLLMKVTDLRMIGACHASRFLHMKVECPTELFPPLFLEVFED
Description: THR-β Coactivator Peptide Recruitment Assay (LanthaScreen TR-FRET). The format is biochemical. In a few lines: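 GST-tagged THR beta-LBD (0.5 nM) with test compound recruits fluorescein-SRC2-2 coactivator peptide (0.1 nM), detected with Tb-anti-GST antibody (2 nM).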
A general note: In TR-FRET formats the signal depends on donor and acceptor labels being close together.

In assay [2] the target is T2, THR alpha-LBD (Homo sapiens, UniProt P10827).
T2 construct: except that THR alpha-LBD of a final concentration 0.25 nM was used; purchased Invitrogen PV4687
T2 sequence (P10827 163-410 isoform P10827-2 limits assumed, other chains not shown): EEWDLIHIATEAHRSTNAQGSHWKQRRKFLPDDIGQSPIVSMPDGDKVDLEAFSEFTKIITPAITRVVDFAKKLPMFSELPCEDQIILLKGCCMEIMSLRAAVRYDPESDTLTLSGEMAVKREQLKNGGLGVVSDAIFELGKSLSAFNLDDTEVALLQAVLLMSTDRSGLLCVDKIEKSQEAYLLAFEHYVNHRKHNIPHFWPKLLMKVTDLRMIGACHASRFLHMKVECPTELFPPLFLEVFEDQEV
The assay can be described thus: THR-α Coactivator Peptide Recruitment Assay (LanthaScreen TR-FRET). The assay is classed as biochemical. The method in brief: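 TR-FRET coactivator recruitment with THR alpha-LBD at 0.25 nM final, Fluorescein-SRC2-2 peptide 0.1 nM and Tb-labeled anti-GST antibody 2 nM; 2 h incubation at room temperature. 520/495 nm emission ratio fitted to a four-parameter sigmoidal curve to give EC50.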

The mark [3] stands for this setting: TR-FRET coactivator recruitment, THR beta-LBD 0.5 nM.
The mark [4] stands for this setting: TR-FRET coactivator recruitment, THR alpha-LBD 0.25 nM.
The mark [5] stands for this setting: TR-FRET coactivator recruitment, THR beta-LBD 0.5 nM, read-out: THRβ EC50.
Setting [6] is: TR-FRET coactivator recruitment, THR alpha-LBD 0.25 nM, read-out: THRα EC50.

Like-named read-outs stand apart in the source and are kept apart here.

Usually EC50 stands for the concentration that produces a half-maximal response. In the case of `O=C(N[C@H]1C[C@H](NS(=O)(=O)c2cc(Oc3c(Cl)cc(-n4nc(C(F)F)c(=O)[nH]c4=O)cc3Cl)ccc2O)C1)C1CC1` [Compound 78, N-[3-[[5-[2,6-dichloro-4-[6-(difluoromethyl)-3,5-dioxo-1,2,4-triazin-2-yl]-phenoxy]-2-hydroxy-phenyl]-sulfonylamino]-cyclobutyl]-cyclopropanecarboxamide], the figures for the EC50 in assay [1] and in assay [2] were 0.02 to 0.1 µM and 0.2 to 1 µM, respectively. For the same compound, the “THRβ Emax” value in assay [1] (setting [3]) is recorded as “C (<75)”. In addition, the “THRα Emax” value in assay [2] (setting [4]) is “B (40~85)”.

As to `O=c1[nH]c(=O)n(-c2cc(Cl)c(Oc3ccc(O)c(S(=O)(=O)N4CC(O)C4)c3)c(Cl)c2)nc1C(F)F` [Compound 40, 2-[3,5-dichloro-4-[4-hydroxy-3-(3-hydroxyazetidin-1-yl)sulfonyl-phenoxy]phenyl]-6-(difluoromethyl)-1,2,4-triazine-3,5-dione], in assay [1] (setting [3]), the “THRβ Emax” value was “B (75~90)”. Moreover, the concentration giving a half-maximal response (EC50) is below 0.002 µM in assay [1] (setting [5]) and 0.002 to 0.2 µM in assay [2] (setting [6]). Moreover, in assay [2] (setting [4]), the “THRα Emax” value is “A (85~110)”.

As for `COCCNS(=O)(=O)c1cc(Oc2c(Cl)cc(-n3nc(C(F)F)c(=O)[nH]c3=O)cc2Cl)ccc1O` [Compound 65, 5-[2,6-dichloro-4-[6-(difluoromethyl)-3,5-dioxo-1,2,4-triazin-2-yl]phenoxy]-2-hydroxy-N-(2-methoxyethyl) benzenesulfonamide], in assay [1] (setting [3]), the “THRβ Emax” value was “B (75~90)”. In addition, the results for the EC50 in assay [1] (setting [5]) and in assay [2] (setting [6]) were below 0.002 µM and 0.002 to 0.2 µM, respectively. Besides, the “THRα Emax” value in assay [2] (setting [4]) is recorded as “B (40~85)”.

On to `O=c1[nH]c(=O)n(-c2cc(Cl)c(Oc3ccc(O)c(S(=O)(=O)N4CC[C@H](O)C4)c3)c(Cl)c2)nc1C(F)F` [Compound 77, (S)-2-(3,5-dichloro-4-(4-hydroxy-3-((3-hydroxypyrrolidin-1-yl)sulfonyl)phenoxy)phenyl)-6-(difluoromethyl)-1,2,4-triazine-3,5(2H,4H)-dione], for which the “THRβ Emax” value in assay [1] (setting [3]) is given as “B (75~90)”. The EC50 is below 0.002 µM in assay [1] (setting [5]) and 0.002 to 0.2 µM in assay [2] (setting [6]). In assay [2] (setting [4]), the “THRα Emax” value was “A (85~110)”.

As to `O=c1[nH]c(=O)n(-c2cc(Cl)c(Oc3cc(S(=O)(=O)NC4CCC4)c(O)cn3)c(Cl)c2)nc1C(F)F` [Compound 123, N-cyclobutyl-2-(2,6-dichloro-4-(6-(difluoromethyl)-3,5-dioxo-4,5-dihydro-1,2,4-triazin-2(3H)-yl)phenoxy)-5-hydroxypyridine-4-sulfonamide], in assay [1] (setting [3]), the “THRβ Emax” value is recorded as “A (90~110)”. Moreover, the EC50 was below 0.002 µM in assay [1] (setting [5]) and 0.002 to 0.2 µM in assay [2] (setting [6]). Also, the “THRα Emax” value in assay [2] (setting [4]) was “A (85~110)”.

As to `O=C(CNS(=O)(=O)c1cc(Oc2c(Cl)cc(-n3nc(C(F)F)c(=O)[nH]c3=O)cc2Cl)ccc1O)NC1CC1` [Compound 59, N-cyclopropyl-2-((5-(2,6-dichloro-4-(6-(difluoromethyl)-3,5-dioxo-4,5-dihydro-1,2,4-triazin-2(3H)-yl)phenoxy)-2-hydroxyphenyl)sulfonamido)acetamide], in assay [1] (setting [3]), the “THRβ Emax” value is “A (90~110)”. The EC50 in assay [1] (setting [5]) is 0.002 to 0.02 µM; in assay [2] (setting [6]), 0.2 to 1 µM. In assay [2] (setting [4]), the “THRα Emax” value is “B (40~85)”.

As to `O=C(CNS(=O)(=O)c1cc(Oc2c(Cl)cc(-n3nc(C(F)F)c(=O)[nH]c3=O)cc2Cl)ncc1O)NC1CCC1` [Compound 119, N-cyclobutyl-2-[[2-[2,6-dichloro-4-[6-(difluoromethyl)-3,5-dioxo-1,2,4-triazin-2-yl]-phenoxy]-5-hydroxy-4-pyridyl]-sulfonylamino]-acetamide], in assay [1] (setting [3]), the “THRβ Emax” value is listed as “C (<75)”. The values for the EC50 in assay [1] (setting [5]) and in assay [2] (setting [6]) were above 0.1 µM and above 1 µM, respectively. For the same compound, the “THRα Emax” value in assay [2] (setting [4]) is on record as “C (<40)”.

Regarding `O=c1[nH]c(=O)n(-c2cc(Cl)c(Oc3ccc(O)c(S(=O)(=O)N[C@H]4CCN(S(=O)(=O)C5CC5)C4)c3)c(Cl)c2)nc1C(F)F` [Compound 49, (S)-N-(1-(cyclopropylsulfonyl)pyrrolidin-3-yl)-5-(2,6-dichloro-4-(6-(difluoromethyl)-3,5-dioxo-4,5-dihydro-1,2,4-triazin-2(3H)-yl)phenoxy)-2-hydroxybenzenesulfonamide], in assay [1] (setting [3]), the “THRβ Emax” value was “C (<75)”. Besides, the EC50 in assay [1] (setting [5]) fell in the range of 0.002 to 0.02 µM; in assay [2] (setting [6]), 0.2 to 1 µM. Also, the “THRα Emax” value in assay [2] (setting [4]) is “C (<40)”.

Take `NC(=O)CNS(=O)(=O)c1cc(Oc2c(Cl)cc(-n3nc(C(F)F)c(=O)[nH]c3=O)cc2Cl)ccc1O` [Compound 58, 2-((5-(2,6-dichloro-4-(6-(difluoromethyl)-3,5-dioxo-4,5-dihydro-1,2,4-triazin-2 (3H)-yl)phenoxy)-2-hydroxyphenyl)sulfonamido)acetamide]: the “THRβ Emax” value in assay [1] (setting [3]) is “B (75~90)”. In addition, the EC50 in assay [1] (setting [5]) was below 0.002 µM; in assay [2] (setting [6]), 0.002 to 0.2 µM. Also, the “THRα Emax” value in assay [2] (setting [4]) is recorded as “A (85~110)”.

As for `N#Cc1nn(-c2cc(Cl)c(Oc3cc(S(=O)(=O)C4CC4)c(O)cn3)c(Cl)c2)c(=O)[nH]c1=O` [Compound 129, 2-(3,5-dichloro-4-((4-(cyclopropylsulfonyl)-5-hydroxypyridin-2-yl)oxy)phenyl)-3,5-dioxo-2,3,4,5-tetrahydro-1,2,4-triazine-6-carbonitrile], the “THRβ Emax” value in assay [1] (setting [3]) is listed as “A (90~110)”. Also, the values for the EC50 in assay [1] (setting [5]) and in assay [2] (setting [6]) were 0.002 to 0.02 µM and 0.002 to 0.2 µM, respectively. Moreover, the “THRα Emax” value in assay [2] (setting [4]) is reported as “B (40~85)”.

In the case of `CO[C@H]1C[C@@H](NS(=O)(=O)c2cc(Oc3c(Cl)cc(-n4nc(C(F)F)c(=O)[nH]c4=O)cc3Cl)ccc2O)C1` [Compound 37, 5-(2,6-dichloro-4-(6-(difluoromethyl)-3,5-dioxo-4,5-dihydro-1,2,4-triazin-2(3H)-yl)phenoxy)-2-hydroxy-N-((1s,3s)-3-methoxycyclobutyl)benzenesulfonamide], the “THRβ Emax” value in assay [1] (setting [3]) is “B (75~90)”. Further, the EC50 in assay [1] (setting [5]) was in the range of 0.002 to 0.02 µM; in assay [2] (setting [6]) it was 0.002 to 0.2 µM. Further, in assay [2] (setting [4]), the “THRα Emax” value is reported as “A (85~110)”.

Regarding `Cc1nn(-c2cc(Cl)c(Oc3cc(S(=O)(=O)N[C@H]4C[C@H](O)C4)c(O)cn3)c(Cl)c2)c(=O)[nH]c1=O` [Compound 161, 2-(2,6-dichloro-4-(6-methyl-3,5-dioxo-4,5-dihydro-1,2,4-triazin-2(3H)-yl)phenoxy)-5-hydroxy-N-((1r,3r)-3-hydroxycyclobutyl)pyridine-4-sulfonamide], the “THRβ Emax” value in assay [1] (setting [3]) was “B (75~90)”. Moreover, the figures for the EC50 in assay [1] (setting [5]) and in assay [2] (setting [6]) were 0.02 to 0.1 µM and 0.2 to 1 µM, respectively. Besides, the “THRα Emax” value in assay [2] (setting [4]) is “B (40~85)”.

For the compound `O=c1[nH]c(=O)n(-c2cc(Cl)c(Oc3ccc(O)c(S(=O)(=O)NC4CC4)c3)c(Cl)c2)nc1C(F)F` [Compound 14, N-cyclopropyl-5-(2,6-dichloro-4-(6-(difluoromethyl)-3,5-dioxo-4,5-dihydro-1,2,4-triazin-2(3H)-yl)phenoxy)-2-hydroxybenzenesulfonamide], in assay [1] (setting [3]), the “THRβ Emax” value is listed as “A (90~110)”. The EC50 in assay [1] (setting [5]) and in assay [2] (setting [6]) was below 0.002 µM throughout. The “THRα Emax” value in assay [2] (setting [4]) is “A (85~110)”.

With `CS(=O)(=O)CC1(NS(=O)(=O)c2cc(Oc3c(Cl)cc(-n4nc(C(F)F)c(=O)[nH]c4=O)cc3Cl)ccc2O)CC1` [Compound 94, 5-[2,6-dichloro-4-[6-(difluoromethyl)-3,5-dioxo-1,2,4-triazin-2-yl]phenoxy]-2-hydroxy-N-[1-(methylsulfonylmethyl)cyclopropyl] benzene sulfonamide], the “THRβ Emax” value in assay [1] (setting [3]) is listed as “B (75~90)”. The values for the EC50 in assay [1] (setting [5]) and in assay [2] (setting [6]) were 0.002 to 0.02 µM and 0.2 to 1 µM, respectively. For the same compound, the “THRα Emax” value in assay [2] (setting [4]) is “B (40~85)”.

`O=c1[nH]c(=O)n(-c2cc(Cl)c(Oc3ccc(O)c(S(=O)(=O)N[C@H]4CCOC4)c3)c(Cl)c2)nc1C(F)F` [Compound 29, (S)-5-(2,6-dichloro-4-(6-(difluoromethyl)-3,5-dioxo-4,5-dihydro-1,2,4-triazin-2(3H)-yl)phenoxy)-2-hydroxy-N-(tetrahydrofuran-3-yl)benzenesulfonamide]: the “THRβ Emax” value in assay [1] (setting [3]) is “A (90~110)”. Further, the results for the EC50 in assay [1] (setting [5]) and in assay [2] (setting [6]) were below 0.002 µM and 0.002 to 0.2 µM, respectively. The “THRα Emax” value in assay [2] (setting [4]) was “A (85~110)”.

On to `CCS(=O)(=O)c1cc(Oc2c(Cl)cc(-n3nc(C(F)F)c(=O)[nH]c3=O)cc2Cl)ncc1O` [Compound 151, 2-[3,5-dichloro-4-[(4-ethylsulfonyl-5-hydroxy-2-pyridyl)oxy]phenyl]-6-(difluoromethyl)-1,2,4-triazine-3,5-dione], for which the “THRβ Emax” value in assay [1] (setting [3]) is given as “A (90~110)”. Also, the EC50 is below 0.002 µM in assay [1] (setting [5]) and 0.002 to 0.2 µM in assay [2] (setting [6]). The “THRα Emax” value in assay [2] (setting [4]) is reported as “A (85~110)”.

Take `CS(=O)(=O)N[C@@H]1CCN(S(=O)(=O)c2cc(Oc3c(Cl)cc(-n4nc(C(F)F)c(=O)[nH]c4=O)cc3Cl)ccc2O)C1` [Compound 47, (R)-N-(1-((5-(2,6-dichloro-4-(6-(difluoromethyl)-3,5-dioxo-4,5-dihydro-1,2,4-triazin-2(3H)-yl)phenoxy)-2-hydroxyphenyl)sulfonyl)pyrrolidin-3-yl)methanesulfonamide]: in assay [1] (setting [3]), the “THRβ Emax” value is recorded as “C (<75)”. In addition, the EC50 in assay [1] (setting [5]) was in the range of 0.002 to 0.02 µM; in assay [2] (setting [6]), 0.002 to 0.2 µM. Further, the “THRα Emax” value in assay [2] (setting [4]) is given as “B (40~85)”.

Values taken from patent publication US12291518B2, “Thyroid hormone receptor agonists and use thereof” (Eccogene Inc., priority 2020, dated 2025).
